Assay results taken from US7833985B2, “Angiotensin-converting enzyme inhibitory peptides” (Suntory Holdings Limited, priority 2003, dated 2010).

Biological target: T1, ACE from rabbit lung (Oryctolagus cuniculus, UniProt P12822)
T1 construct: ACE from rabbit lung (Sigma); purchased Sigma; host or cells: rabbit lung
T1 sequence (P12822 34-1310): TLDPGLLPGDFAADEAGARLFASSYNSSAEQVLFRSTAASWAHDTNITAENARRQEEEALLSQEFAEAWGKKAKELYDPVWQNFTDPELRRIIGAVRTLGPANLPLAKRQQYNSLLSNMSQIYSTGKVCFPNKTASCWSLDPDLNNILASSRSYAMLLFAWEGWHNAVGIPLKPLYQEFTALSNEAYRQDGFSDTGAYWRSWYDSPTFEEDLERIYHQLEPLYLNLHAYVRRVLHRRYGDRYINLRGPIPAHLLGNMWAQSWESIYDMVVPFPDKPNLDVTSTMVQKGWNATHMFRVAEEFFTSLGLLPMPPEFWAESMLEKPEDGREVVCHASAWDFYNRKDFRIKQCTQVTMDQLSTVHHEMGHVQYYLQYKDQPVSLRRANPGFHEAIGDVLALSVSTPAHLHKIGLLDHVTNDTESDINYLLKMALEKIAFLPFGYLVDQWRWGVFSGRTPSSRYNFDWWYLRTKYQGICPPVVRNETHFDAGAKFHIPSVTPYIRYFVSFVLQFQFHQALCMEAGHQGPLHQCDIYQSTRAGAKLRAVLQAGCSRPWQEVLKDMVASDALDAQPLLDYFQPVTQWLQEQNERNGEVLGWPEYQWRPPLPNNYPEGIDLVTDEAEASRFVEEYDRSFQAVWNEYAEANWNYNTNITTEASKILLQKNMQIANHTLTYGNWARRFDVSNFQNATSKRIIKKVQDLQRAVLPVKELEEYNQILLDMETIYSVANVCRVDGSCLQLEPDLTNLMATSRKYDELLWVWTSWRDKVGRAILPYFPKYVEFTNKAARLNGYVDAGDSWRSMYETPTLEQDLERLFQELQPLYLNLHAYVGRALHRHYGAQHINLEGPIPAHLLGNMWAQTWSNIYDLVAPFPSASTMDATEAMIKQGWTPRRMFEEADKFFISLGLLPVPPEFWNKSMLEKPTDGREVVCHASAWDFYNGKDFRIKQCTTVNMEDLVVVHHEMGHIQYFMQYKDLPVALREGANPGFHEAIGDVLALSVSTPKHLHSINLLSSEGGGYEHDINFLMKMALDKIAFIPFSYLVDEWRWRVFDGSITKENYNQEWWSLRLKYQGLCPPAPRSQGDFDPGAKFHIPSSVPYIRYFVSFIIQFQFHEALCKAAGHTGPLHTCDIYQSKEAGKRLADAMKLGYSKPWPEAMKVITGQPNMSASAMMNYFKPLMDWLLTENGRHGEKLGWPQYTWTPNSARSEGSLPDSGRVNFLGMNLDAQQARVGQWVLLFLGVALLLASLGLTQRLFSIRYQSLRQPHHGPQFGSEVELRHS
Test: ACE inhibitory activity (IC50), fluorometric Bz-Gly-His-Leu hydrolysis
Assay type: biochemical
Conditions: peptide purified from thermolysin digestion product of sesame protein; 5 μl portion of each fraction
Method: In the present invention, the ACE inhibitory activity (IC50) was measured in accordance with the following method.
5 μl of a sample containing the peptide of the invention was pipetted into a 96-well microplate. After adding 25 μl of the buffer and 10 μl of the enzyme, the mixture was thoroughly stirred and incubated at 37° C. for 5 minutes. After adding 10 μl of the substrate, the mixture was reacted at 37° C. for 30 minutes. Then the reaction was ceased by adding 40 μl of 0.1 N NaOH. […] Then the amount of His-Leu formed by the hydrolysis by ACE was determined by exciting (at 355 nm) the fluorescent substance formed by the reaction between the amino group in the histidine residue and o-phthalaldehyde and measuring the fluorescence wavelength at 460 nm. Then the percentage inhibition by the peptide of the invention was determined in accordance with the following equation and the ACE inhibitory activity (IC50) was calculated. Percentage inhibition={1−(A−a)/(B−b)}×100 • A: Measurement of fluorescence when the sample was added. • a: Measurement of fluorescence when the sample was added and the buffer was added as a substitute for the enzyme. • B: Measurement of fluorescence when distilled water was added as a substitute for the sample. • b: Measurement of fluorescence when distilled water was added as a substitute for the sample and the buffer was added as a substitute for the enzyme.

ACE inhibitory activity of the C30 HPLC fractions identified as the peptide: strong ACE inhibitory activities
Substance: Ile-Val-Tyr
